From article PMC5201331, “Subchronic Toxicities of HZ1006, a Hydroxamate-Based Histone Deacetylase Inhibitor, in Beagle Dogs and Sprague-Dawley Rats” (International Journal of Environmental Research and Public …, 2016)

Experiments:
[1] = Toxicokinetics in SD rats; assay type: in vivo, Sprague-Dawley (SD) rats; conditions: for AUC(0-inf) / Cmax / Tmax / half-life: both sexes, Sprague-Dawley, rat, plasma, po, SD rats; for accumulation coefficient R: rats, after 28 days compared with d1
Description: The rats that were judged suitable for the subchronic toxicity study were randomly divided into four groups (10 rats/sex/group). The rats received the test sample by gavage once daily for 28 days. HZ1006 was administered to the rats at doses of 120, 60, 20 and 0 (control) mg/kg, and the dosage volume was 5 mL/kg. Half of the 80 rats (half male and half female) were selected randomly according to body weight and dissected at d28. The remaining rats were dissected at […]. The dogs' blood samples were obtained on the 1st day, the 14th day and the last day (d28) of dosage for plasma HZ1006 content analyses at 0 (1st day only), 1/6, 0.5, 1, 2, 4, 8, 12 and 24 h after dosing, and the blood samples of the rats were acquired on the 1st day and 28th day at the same time as those of the dogs, which were handled and analyzed according to the procedure reported by Zhang et al..

[2] = Subchronic toxicity test in Beagle dogs: overall (NOAEL, urinalysis, ECG); assay type: in vivo; conditions: both sexes, beagle, dog, in vivo, daily oral administration, 28 days, read-out: NOAEL (No Observed Adverse Effect Level)
Description: (§1) HZ1006 was administered orally to dogs (four/sex/group) at doses of 80, 40, 20, 5 and 0 (control) mg/kg/day, and the dosage volume was 2 mL/kg. The dogs received test doses with the exact amounts on a weekly basis based on current body weights. […] The other dogs in the above groups were dissected on the planned days. For the other groups, half of the dogs were anatomized on d28 and the remaining half on d42.
(§2) Clinical symptoms and mortality were examined at least twice daily during the 42-day period, which included any changes in reaction to treatment, behavior, illness, food consumption, and body weight. Breathing rates, rectal temperature and pupil changes in the Beagle dogs were assessed once every 2 weeks.
(§3) The parameters of the dogs’ ECG included the Heart rate, Time at R, P Duration, P-R interval, T Duration, QRS Durations, Q-T Intervals and ST Segment, which were examined by an ECG6511 ECG instrument (manufactured by Shanghai Kohden Medical Electronic Instrument Corp., Shanghai, China) on d0 (twice), d14, d28 and d42 using the II limb lead method.
(§4) A Micro AUTION MA-4260 Autoanalyzer from Arkray Global Business, Inc. (kyoto, Japan), was used to analyze the animal urine samples. Parameters such as pH, specific gravity, nitrites, leukocytes, glucose, protein, urobilinogen, ketones, occult blood, bilirubin, and hemoglobin were tested.

Beagle dogs = assay: as above; assay type: in vivo
Description: as §1, §2, §3, §4

SD rats = assay: Subchronic toxicity test in SD rats: hematology; assay type: in vivo, Sprague-Dawley (SD) rats; conditions: for APTT / FIB / Lym / Neu / WBC: female rats; for RET: male rats
Description: The rats that were judged suitable for the subchronic toxicity study were randomly divided into four groups (10 rats/sex/group). The rats received the test sample by gavage once daily for 28 days. HZ1006 was administered to the rats at doses of 120, 60, 20 and 0 (control) mg/kg, and the dosage volume was 5 mL/kg. Half of the 80 rats (half male and half female) were selected randomly according to body weight and dissected at d28. The remaining rats were dissected at […]. The following indexes were examined for the dogs used in the study, twice during the pre-dosage period and on d14, d28 and […]. The following parameters were evaluated on d28 and […] for the rats in the study: Blood samples of the animals were collected in tubes containing ethylenediamine tetraacetic acid (EDTA) and tested using an ADVIA2120 Hematology Autoanalyzer (Bayer, Leverkusen, Germany). The following indexes were examined: hemoglobin concentration (Hb), red blood cell count (RBC),mean corpuscular volume (MCV), hematocrit (HCT), mean corpuscular hemoglobin concentration (MCHC), mean corpuscular hemoglobin (MCH), white blood cell count (WBC), platelet count (Plt), WBC differential counts [neutrophilcyte (Neu), eosinophilic granulocyte (Eos), basophilic leukocyte (Bas), lymphocyte (Lym), and monocyte (Mon)] and reticulocytes (Ret). The serum coagulation times of the blood samples (1.8-mL samples were mixed with 0.2 mL sodium citrate), including prothrombin time (PT), fibrinogen (FIB), activated partial thromboplastin time (APTT), and thrombin time (TT), were tested using an MC10 plus Blood Coagulation Analyzer from Shanghai San Jose Medical Products Co., Ltd. (Shanghai, China).

[3] = 20 mg/kg/day, 20 mg/kg/day oral, 28 days
[4] = 20 mg/kg/day, 20 mg/kg/day oral, single
[5] = 60 mg/kg/day, 60 mg/kg/day oral, 28 days
[6] = 60 mg/kg/day, 60 mg/kg/day oral, single
[7] = 120 mg/kg/day, 120 mg/kg/day oral, 28 days
[8] = 120 mg/kg/day, 120 mg/kg/day oral, single
[9] = 20 mg/kg oral daily, d42 (recovery)
[10] = 60 mg/kg oral daily, d42 (recovery)
[11] = 120 mg/kg oral daily, d42 (recovery)

Work on `CCCCCCCNc1cc(/C=C/C(=O)NO)ccc1OCCN(CC)CC` [HZ1006] yielded an AUC(0-inf) [1, 3] of 32.7 ± 14.9 ng·h/mL, a Cmax [1, 3] of 12.9 ± 9.5 ng/mL and a Tmax [1, 3] of 0.34 ± 0.18 h. It also gave a half-life [1, 3] of 7.32 ± 2.93 h, an AUC(0-inf) [1, 4] of 8 ± 9.1 ng·h/mL and a Cmax [1, 4] of 7.5 ± 7.2 ng/mL. For the same molecule, the Tmax [1, 4] was 0.86 ± 1.54 h, the half-life [1, 4] was 0.6 ± 0.37 h and the AUC(0-inf) [1, 5] was 114 ± 30.9 ng·h/mL. For the same molecule, the Cmax [1, 5] was 19.7 ± 3.3 ng/mL, the Tmax [1, 5] was 0.28 ± 0.17 h and the half-life [1, 5] was 7.57 ± 2.31 h. It also gave an AUC(0-inf) [1, 6] of 39.1 ± 15 ng·h/mL, a Cmax [1, 6] of 13.3 ± 5.5 ng/mL and a Tmax [1, 6] of 0.5 h. It also gave a half-life [1, 6] of 6.83 ± 2.69 h, an AUC(0-inf) [1, 7] of 447 ± 282 ng·h/mL and a Cmax [1, 7] of 57.5 ± 26.1 ng/mL. The Tmax [1, 7] was 1.92 ± 3.07 h, the half-life [1, 7] was 7.03 ± 1.9 h and the AUC(0-inf) [1, 8] was 69.9 ± 22.9 ng·h/mL. For the same molecule, the Cmax [1, 8] was 20.4 ± 3.8 ng/mL, the Tmax [1, 8] was 0.45 ± 0.13 h and the half-life [1, 8] was 6.51 ± 1.62 h. The “accumulation coefficient R” value ([1]; 20 mg/kg/day oral) was 16.8 ± 21.6, the “accumulation coefficient R” value ([1]; 60 mg/kg/day oral) was 3.2 ± 1.2 and the “accumulation coefficient R” value ([1]; 120 mg/kg/day oral) was 6.3 ± 2.8. For the same molecule, the NOAEL at 28 days [2] was 5 mg/kg, the ECG examination (Beagle dogs; 5-80 mg/kg/day oral) was “no dose-related changes” and the urinalysis (Beagle dogs; 5-80 mg/kg/day oral) was “no dose-related changes”. For the same molecule, the minimum toxic dose (Beagle dogs; daily oral administration, 28 days) was 20 mg/kg, the APTT (SD rats; 20 mg/kg oral daily, d28) was 24.3 ± 3.5 s and the FIB (SD rats; 20 mg/kg oral daily, d28) was 1.87 ± 0.09 g/L. For the same molecule, the Lym (SD rats; 20 mg/kg oral daily, d28) was 88.38 ± 1.68%, the Neu (SD rats; 20 mg/kg oral daily, d28) was 8.70 ± 1.72% and the WBC (SD rats; 20 mg/kg oral daily, d28) was 3.17 ± 1.23 ×10^9·L^−1. It also gave an APTT (SD rats; [9]) of 22.2 ± 3.0 s, an FIB (SD rats; [9]) of 1.62 ± 0.17 g/L and a Lym (SD rats; [9]) of 85.40 ± 3.85%. For the same molecule, the Neu (SD rats; [9]) was 11.58 ± 4.04%, the WBC (SD rats; [9]) was 2.68 ± 0.63 ×10^9·L^−1 and the APTT (SD rats; 60 mg/kg oral daily, d28) was 23.0 ± 2.4 s. The FIB (SD rats; 60 mg/kg oral daily, d28) was 1.89 ± 0.06 g/L, the Lym (SD rats; 60 mg/kg oral daily, d28) was 84.70 ± 5.45% and the Neu (SD rats; 60 mg/kg oral daily, d28) was 12.08 ± 4.77%. The WBC (SD rats; 60 mg/kg oral daily, d28) was 2.82 ± 0.60 ×10^9·L^−1, the APTT (SD rats; [10]) was 25.2 ± 1.3 s and the FIB (SD rats; [10]) was 1.62 ± 0.18 g/L. For the same molecule, the Lym (SD rats; [10]) was 85.36 ± 6.93%, the Neu (SD rats; [10]) was 12.06 ± 6.70% and the WBC (SD rats; [10]) was 2.53 ± 0.60 ×10^9·L^−1. The APTT (SD rats; 120 mg/kg oral daily, d28) was 22.6 ± 2.4 s, the FIB (SD rats; 120 mg/kg oral daily, d28) was 2.01 ± 0.40 g/L and the Lym (SD rats; 120 mg/kg oral daily, d28) was 77.22 ± 8.78%. The Neu (SD rats; 120 mg/kg oral daily, d28) was 19.28 ± 8.26%, the WBC (SD rats; 120 mg/kg oral daily, d28) was 3.95 ± 0.77 ×10^9·L^−1 and the APTT (SD rats; [11]) was 25.2 ± 1.6 s. It also gave an FIB (SD rats; [11]) of 1.85 ± 0.12 g/L, a Lym (SD rats; [11]) of 85.88 ± 1.85% and a Neu (SD rats; [11]) of 10.76 ± 1.81%. The WBC (SD rats; [11]) was 3.00 ± 0.43 ×10^9·L^−1, the RET (SD rats; 20 mg/kg oral daily, d28) was 1.88 ± 0.32% and the RET (SD rats; [9]) was 1.92 ± 0.31%. For the same molecule, the RET (SD rats; 60 mg/kg oral daily, d28) was 1.43 ± 0.22%, the RET (SD rats; [10]) was 1.82 ± 0.43% and the RET (SD rats; 120 mg/kg oral daily, d28) was 2.04 ± 0.31 %. The RET (SD rats; [11]) was 2.16 ± 0.22%.
